# Experimental data published in patent US8975264B2, “Compound acting as a cannabinoid receptor-1 inhibitor” (Amorepacific Corporation, priority 2010, dated 2015).
# Molecular target: human CB1 (cannabinoid receptor 1) (Homo sapiens, UniProt P21554)
# Assay: CB1 receptor inhibition effect: calcium ion influx assay (Fluo-4 NW) in Chem-1 cells after 1 μM R-(+)-WIN55212-2
# Type: cell-based
# Conditions: calcium ion influx in Chem-1 cells expressing human CB1, 1 μM R-(+)-WIN55212-2
# Procedure: When cells in which the cannabinoid receptor 1 (CB1) is stably expressed are treated with a CB1 receptor agonist, the CB1 receptor is activated and influx of calcium ions into the cells increases. CB1 receptor inhibition effect of a test compound can be evaluated by measuring the degree of calcium influx inhibition after treating with the test compound.
# First, Chem-1 cells (Chemicon International, #HTS019C) in which human CB1 cDNA is expressed stably were seeded onto a 96-well cell culture plate at a density of ˜50,000 cells/well and incubated overnight in a 5% CO2 incubator at 37° C. The next day, the culture medium was discarded and the cells were cautiously washed once using an assay buffer (HBSS containing 20 mM HEPES and 2.5 mM probenecid) with 200 μL/well. Calcium ion influx was measured using an assay kit (Fluo-4 NW calcium assay kit: Molecular Probes™, #F36206) according to the manufacturer's instructions. The compounds of Examples of desired concentration to be measured were comprised to 0.5% DMSO. For control, only 0.5% DMSO was used without the compounds of Examples. Reaction time was 10 minutes. After treating the Chem-1 cells stably expressing the CB1 receptor with 1 μM R-(+)-WIN55212-2 (Sigma, #W102), a CB1 receptor agonist, calcium ion (Ca^2+) flux induced thereby was measured for 80 seconds using Flex Station 3 (Molecular Device, USA).
# The difference in calcium ion concentration of the cells treated with the compounds of Examples or those treated with 1 μM R-(+)-WIN55212-2 was obtained from the difference of the maximum and minimum values during the 80 seconds. Then, % inhibition of the compounds for the CB1 receptor was calculated using the following equation. % inhibition={1−(ΔRFUcompound−ΔRFUBlank)/(ΔRFUControl−ΔRFUBlank)}×100 [Equation]
# ΔRFU: maximum relative fluorescence units−minimum relative fluorescence units
# ΔRFUCompound: difference in maximum and minimum RFUs in the well where the compounds of Examples dissolved in DMSO to a final concentration of 0.5% and 1 μM R-(+)-WIN55212-2 dissolved in DMSO to a final concentration of 0.5% were added
# ΔRFUBlank: difference in maximum and minimum RFUs in the well to which only 1% DMSO was added
# ΔRFUControl: difference in maximum and minimum RFUs in the well where 0.5% DMSO and 1 μM R-(+)-WIN55212-2 dissolved in DMSO to a final concentration of 0.5% were added
# Sequence of human CB1 (cannabinoid receptor 1) (P21554 whole entry): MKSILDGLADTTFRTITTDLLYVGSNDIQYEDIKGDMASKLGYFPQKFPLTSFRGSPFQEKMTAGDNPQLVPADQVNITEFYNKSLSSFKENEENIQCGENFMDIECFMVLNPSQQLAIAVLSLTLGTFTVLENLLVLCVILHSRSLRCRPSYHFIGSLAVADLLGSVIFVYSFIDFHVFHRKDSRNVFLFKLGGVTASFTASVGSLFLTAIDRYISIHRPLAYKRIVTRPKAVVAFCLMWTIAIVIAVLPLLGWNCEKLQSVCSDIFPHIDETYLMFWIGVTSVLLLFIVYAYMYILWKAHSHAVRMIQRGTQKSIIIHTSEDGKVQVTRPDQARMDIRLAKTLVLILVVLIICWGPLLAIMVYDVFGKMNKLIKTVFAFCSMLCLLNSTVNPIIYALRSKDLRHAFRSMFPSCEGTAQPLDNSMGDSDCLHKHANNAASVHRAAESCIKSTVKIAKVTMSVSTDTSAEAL
row,Compound,IC50 [nM]
1,CCc1cccc(-c2cc(N3CCC[C@H]3CO)nc3c(-c4ccc(Cl)cc4)c(C)nn23)c1 [Example 14],90
2,CCOc1ccc(-c2c(C)nn3c(-c4cccc(OC)c4)cc(N4CCC[C@H]4CO)nc23)cc1 [Example 51],250
3,Cc1ccc(-c2c(C)nn3c(-c4ccc(F)c(F)c4)cc(N4CCC[C@H]4CO)nc23)cc1F [Example 184],150
4,CCOCc1nn2c(-c3ccc(F)cc3)cc(N3CCC[C@H]3CO)nc2c1-c1ccc(Cl)cc1 [Example 206],8
5,"COCc1nn2c(-c3cccc(C(F)(F)F)c3)cc(N3CCC[C@H]3CO)nc2c1-c1ccc(OC)cc1 [Example 221, (S)-{1-[2-methoxymethyl-7-(3-(trifluoromethyl)phenyl)-3-(4-methoxyphenyl)-pyrazolo[1,5-a]pyrimidin-5-yl]pyrrolidin-2-yl}methanol]",7
6,CCOCc1nn2c(-c3cccc(OC)c3)cc(N(C)CCO)nc2c1-c1ccc2c(c1)OCO2 [Example 252],100
7,Cc1nn2c(-c3ccc(F)cc3)cc(N3CCC[C@H]3CO)nc2c1-c1ccc(F)cc1F [Example 77],350
8,CCOc1ccc(-c2c(C)nn3c(-c4ccc(F)cc4)cc(N4CCC[C@H]4CO)nc23)cc1 [Example 65],100
9,"Cc1ccc(-c2c(C)nn3c(-c4cccc(F)c4)cc(N4CCC[C@H]4CO)nc23)cc1 [Example 110, (S)-(1-(3-(4-methylphenyl)-7-(3-fluorophenyl)-2-methylpyrazolo[1,5-a]pyrimidin-5-yl)pyrrolidin-2-yl)methanol]",80
10,CCOCc1nn2c(-c3cccc(C(F)(F)F)c3)cc(N3CCC[C@H]3CO)nc2c1-c1ccc(Cl)cc1 [Example 208],7
11,"CCOCc1nn2c(-c3ccc(F)cc3)cc(NCCO)nc2c1-c1ccc(C)cc1 [Example 263, 2-[2-ethoxymethyl-7-(4-fluorophenyl)-3-(4-methylphenyl)-pyrazolo[1,5-a]pyrimidin-5-yl-amino]ethanol]",90
12,CCOCc1nn2c(-c3cccc(OC)c3)cc(N3CCC[C@H]3CO)nc2c1-c1ccc(C)cc1 [Example 203],30
13,Cc1cccc(-c2cc(N3CCC[C@H]3CO)nc3c(-c4ccc5c(c4)OCO5)c(C)nn23)c1 [Example 159],200
14,CCc1nn2c(-c3cccc(F)c3)cc(N3CCC[C@H]3CO)nc2c1-c1ccc(C)cc1 [Example 200],110
15,CCOCc1nn2c(-c3ccc(F)cc3)cc(N3CCC[C@H]3CO)nc2c1-c1ccc(OC)cc1 [Example 209],53
16,COc1ccc(-c2c(C)nn3c(-c4ccccc4F)cc(N4CCC[C@H]4CO)nc23)cc1 [Example 39],250
17,Cc1nn2c(-c3ccc(F)c(F)c3)cc(N3CCC[C@H]3CO)nc2c1-c1ccc(Cl)cc1 [Example 21],51
18,Cc1nn2c(-c3ccc(F)cc3)cc(N3CCC[C@H]3CO)nc2c1-c1ccccc1 [Example 83],220
19,"CCOc1ccc(-c2c(C)nn3c(-c4ccccc4)cc(N4CCC[C@H]4CO)nc23)cc1 [Example 47, (S)-(1-(3-(4-ethoxyphenyl)-7-phenyl-2-methylpyrazolo[1,5-a]pyrimidin-5-yl)pyrrolidin-2-yl)methanol]",130
20,COCc1nn2c(-c3ccc(F)cc3)cc(N3CCC[C@H]3CO)nc2c1-c1ccc(Cl)cc1 [Example 231],7
21,Cc1ccc(-c2cnn3c(-c4cccc(F)c4)cc(N4CCC[C@H]4CO)nc23)cc1 [Example 270],440
22,Cc1cccc(-c2cc(N3CCC[C@H]3CO)nc3c(-c4ccc(F)cc4)c(C)nn23)c1 [Example 167],250
23,"COc1ccc(-c2c(C)nn3c(-c4ccc(F)c(F)c4)cc(N4CCC[C@H]4CO)nc23)cc1 [Example 38, (S)-{1-[7-(3,4-difluorophenyl)-3-(4-methoxyphenyl)-2-methylpyrazolo[1,5-a]pyrimidin-5-yl)pyrrolidin-2-yl)methanol]",100

# More lines, in order of falling IC50, values ahead:
row,IC50 [nM],Compound
1,450,CCCOc1ccc(-c2c(C)nn3c(-c4cccc(F)c4)cc(N4CCC[C@H]4CO)nc23)cc1 [Example 119]
2,330,C=Cc1ccc(-c2c(C)nn3c(-c4cccc(C)c4)cc(N4CCC[C@H]4CO)nc23)cc1 [Example 165]
3,280,CCCOc1ccc(-c2c(C)nn3c(-c4cccc(C(F)(F)F)c4)cc(N4CCC[C@H]4CO)nc23)cc1 [Example 133]
4,260,Cc1cccc(-c2cc(N3CCC[C@H]3CO)nc3c(-c4ccc(C(F)(F)F)cc4)c(C)nn23)c1 [Example 163]
5,220,CCc1ccc(-c2c(C)nn3c(-c4cccc(Cl)c4)cc(N4CCC[C@H]4CO)nc23)cc1 [Example 174]
6,210,COc1ccc(-c2c(C)nn3c(-c4cccc(C(F)(F)F)c4)cc(N4CCC[C@H]4CO)nc23)cc1F [Example 138]
7,200,CCCOc1ccc(-c2c(C)nn3c(-c4ccc(C)cc4)cc(N4CCC[C@H]4CO)nc23)cc1 [Example 194]
8,200,COc1cccc(-c2cc(N3CCC[C@H]3CO)nc3c(-c4ccc(Cl)cc4)c(C)nn23)c1 [Example 6]
9,160,CCCOc1ccc(-c2c(C)nn3c(-c4ccc(F)cc4)cc(N4CCC[C@H]4CO)nc23)cc1 [Example 74]
10,150,OC[C@@H]1CCCN1c1cc(-c2cccc(F)c2)n2nc(C3CC3)c(-c3ccc(Cl)cc3)c2n1 [Example 197]
11,140,Cc1nn2c(-c3cccc(C(F)(F)F)c3)cc(N3CCC[C@H]3CO)nc2c1-c1ccc(F)cc1 [Example 139]
12,140,"COc1ccc(-c2c(C)nn3c(-c4ccccc4)cc(N4CCC[C@H]4CO)nc23)cc1 [Example 37, (S)-(1-(3-(4-methoxyphenyl)-7-phenyl-2-methylpyrazolo[1,5-a]pyrimidin-5-yl)pyrrolidin-2-yl)methanol]"
13,130,CCOc1ccc(-c2c(C)nn3c(-c4cccc(F)c4)cc(N4CCC[C@H]4CO)nc23)cc1 [Example 112]
14,100,Cc1ccc(-c2c(C)nn3c(-c4ccc(F)c(Cl)c4)cc(N4CCC[C@H]4CO)nc23)cc1 [Example 36]
15,93,Cc1nn2c(-c3cccc(F)c3)cc(N3CCC[C@H]3CO)nc2c1-c1ccc(Cl)cc1 [Example 3]
16,90,Cc1ccc(-c2c(C)nn3c(-c4cccc(C(F)(F)F)c4)cc(N4CCC[C@H]4CO)nc23)cc1F [Example 137]
17,90,"Cc1nn2c(-c3ccccc3)cc(N3CCC[C@H]3CO)nc2c1-c1ccc2c(c1)OCO2 [Example 56, (S)-(1-(3-(3,4-methylenedioxyphenyl)-7-(phenyl)-2-methylpyrazolo[1,5-a]pyrimidin-5-yl)pyrrolidin-2-yl)methanol]"
18,82,Cc1ccc(-c2c(C)nn3c(-c4ccccc4F)cc(N4CCC[C@H]4CO)nc23)cc1 [Example 33]
19,76,COc1ccc(-c2c(C)nn3c(-c4cccc(C(F)(F)F)c4)cc(N4CCC[C@H]4CO)nc23)cc1 [Example 123]
20,73,CCc1ccc(-c2c(C)nn3c(-c4cccc(C(F)(F)F)c4)cc(N4CCC[C@H]4CO)nc23)cc1 [Example 129]
21,70,"Cc1nn2c(-c3cc(F)cc(F)c3)cc(N3CCC[C@H]3CO)nc2c1-c1ccc2c(c1)OCO2 [Example 62, (S)-(1-(3-(3,4-methylenedioxyphenyl)-7-(3,5-difluorophenyl)-2-methylpyrazolo[1,5-a]pyrimidin-5-yl)pyrrolidin-2-yl)methanol]"
22,50,COCc1nn2c(-c3cccc(OC)c3)cc(N3CCC[C@H]3CO)nc2c1-c1ccc(OC)cc1 [Example 226]
23,48,COCc1nn2c(-c3cccc(C)c3)cc(N3CCC[C@H]3CO)nc2c1-c1ccc(OC)cc1 [Example 227]
24,41,"Cc1ccc(-c2c(C)nn3c(-c4ccc(F)cc4)cc(N4CCC[C@H]4CO)nc23)cc1 [Example 63, (S)-(1-(3-(4-methylphenyl)-7-(4-fluorophenyl)-2-methylpyrazolo[1,5-a]pyrimidin-5-yl)pyrrolidin-2-yl)methanol]"
25,26,CCOCc1nn2c(-c3cccc(C(F)(F)F)c3)cc(N3CCC[C@H]3CO)nc2c1-c1ccc(OC)cc1 [Example 212]
26,18,COCc1nn2c(-c3cccc(Cl)c3)cc(N3CCC[C@H]3CO)nc2c1-c1ccc(OC)cc1 [Example 230]
27,15,COCc1nn2c(-c3cccc(C)c3)cc(N3CCC[C@H]3CO)nc2c1-c1ccc(Cl)cc1 [Example 234]
28,9,COCc1nn2c(-c3cccc(F)c3)cc(N(C)CCO)nc2c1-c1ccc(Cl)cc1 [Example 261]
29,8,CCCCc1nn2c(-c3cccc(C(F)(F)F)c3)cc(N3CCC[C@H]3CO)nc2c1-c1ccc(C)cc1 [Example 288]
30,6,COCc1nn2c(-c3cccc(C(F)(F)F)c3)cc(N3CCC[C@H]3CO)nc2c1-c1ccc(Cl)cc1 [Example 233]
